Source: patent US10717777B2, “Synthetic lung surfactant with enhanced stability and effectiveness” (The Lundquist Institute for Biomedical Innovation at …, priority 2015, dated 2020)

Experiment: Surface activity by captive bubble surfactometry (quasi-static cycling)
Assay type: physicochemical
Conditions: FIG. 2; B-YL, B-LYL, B-AYL at 3% in 5:3:2 (wt:wt:wt) DPPC:POPC:POPG; S-MB, S-MB-DATK, MB-DATK added for comparison
Experimental: In this example, surface activity of the various peptides disclosed in the present disclosure were measured in mixtures of peptides and lipids using captive bubble surfactometry.
This example used peptide concentrations of 2-4% and a lipid mixture consisting of 5:3:2 (wt:wt:wt) DPPC:POPC:POPG. Lipids only were used a negative control and the clinical surfactant Infasurf™ as a positive control.
Low surface tension equals high surface activity.
Minimum tension values during the first 10 cycles of quasi-static cycling on the captive bubble surfactometer are compared with those of lipids only.
FIG. 2 compares 3% of B-YL (SEQ ID NO: 27), B-LYL (SEQ ID NO: 28) and B-AYL (SEQ ID NO: 29) in 5:3:2 (wt:wt:wt) DPPC:POPC:POPG with lipids only (negative control) and the clinical surfactant Infasurf™ (positive control). For comparison the minimum surface tension values of Super Mini-B (S-MB), Super Mini-B-DATK (S-MB-DATK) and Mini-B-DATK (MB-DATK) have been added to the figure.

| Sequence | Surface activity (minimum surface tension) as compared to the negative control (lipids only) |
| --- | --- |
| CWLCRALIKRIQAMIDATKRMLPQLVCRLVLRCS [Mini-B-DATK, Mini-B analog with DATK turn, added for comparison] | excellent surface activity |
| FPIPLPYCWLCRALIKRIQAMIDATKRMLPQLVCRLVLRCS [Super Mini-B-DATK, Super Mini-B analog with DATK turn, added for comparison] | excellent surface activity |
| FPIPLPYCWLCRALIKRIQAMIPKGGRMLPQLVCRLVLRCS [Super Mini-B] | excellent surface activity |
| FPIPLPYLWLYRALIKRIQALIPKGGRLLPQLVYRLVLRLS [B-LYL] | excellent surface activity |
| FPIPLPYYWLYRALIKRIQALIPKGGRLLPQLVYRLVLRYS [B-YL] | excellent surface activity |
